Measured values from patent publication US20150126534A1, “ENZYME AND RECEPTOR MODULATION” (Chroma Therapeutics Ltd, priority 2005, published 2015).
Structures can show the parent of a compound that is named as a salt. Where two headings read alike, the source gives them in different places. Values belong to the compound of their own block, whether it stands above or below them.

Legend:
[1] = tested on: U937 cells (monocytic cell line); assay: Cell proliferation inhibition assay (WST-1), U937; assay type: cell-based; settings: for IC50: Homo sapiens
Experimental: (§1) Following 24 h of growth cells were treated with compound. Plates were then re-incubated for a further 72-96 h before a WST-1 cell viability assay was conducted according to the suppliers (Roche Applied Science) instructions.
(§2) Data were expressed as a percentage inhibition of the control, measured in the absence of inhibitor, as follows: —
(§3) where S^i is the signal in the presence of inhibitor and S^o is the signal in the presence of DMSO.
(§4) Dose response curves were generated from 8 concentrations (top final concentration 10 μM, with 3-fold dilutions), using 6 replicates.

[2] = tested on: HCT116 (non-monocytic cell line); assay: Cell proliferation inhibition assay (WST-1), HCT116; assay type: cell-based; settings: for Ratio IC50 cell/enzyme: HCT116 cell proliferation IC50 / DHFR enzyme IC50; for IC50: Homo sapiens
Experimental: as §1, §2, §3, §4

[3] = target: T1, human aurora kinase A (Homo sapiens, UniProt O14965); assay: Aurora kinase A inhibitory activity assay (Flashplate, 33P-ATP); assay type: biochemical; settings: 10 μM ATP; read-out: Enzyme inhibition IC50 nM (Aurora kinase A)
T1 construct: recombinant, full length human aurora kinase A, N-terminally fused to GST; GST (N); purchased ProQuinase (so in the source); host or cells: baculovirus / Sf21 insect cells
T1 sequence (O14965 1-403): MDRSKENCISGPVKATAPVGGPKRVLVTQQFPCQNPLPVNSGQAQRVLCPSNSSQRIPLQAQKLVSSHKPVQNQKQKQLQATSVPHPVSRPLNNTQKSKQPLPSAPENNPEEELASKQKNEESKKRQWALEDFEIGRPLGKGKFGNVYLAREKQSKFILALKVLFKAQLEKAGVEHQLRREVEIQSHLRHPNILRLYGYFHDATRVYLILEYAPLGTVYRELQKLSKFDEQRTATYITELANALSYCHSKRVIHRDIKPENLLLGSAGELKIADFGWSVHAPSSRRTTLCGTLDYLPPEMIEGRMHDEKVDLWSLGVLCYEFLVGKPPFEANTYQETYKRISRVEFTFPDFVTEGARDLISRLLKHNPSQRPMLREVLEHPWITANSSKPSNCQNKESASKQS
Experimental: The ability of compounds to inhibit aurora kinase A activity was measured using a microplate assay. In brief, 96-well Flashplates® (PerkinElmer Life Sciences) were pre-coated with myelin basic protein (MBP). MBP (100 ul of […] in PBS) was incubated at 37° C. for 1 h, followed by overnight incubation at 4° C. Plates were then washed with PBS and allowed to air dry.
Wells lacking inhibitor were used as vehicle controls and wells containing no enzyme were used to measure the ‘background’ signal. Plates were incubated overnight at 30° C. After incubation the contents of the wells were removed and the plates washed three times with PBS containing 10 mM tetra sodium pyrophosphate prior to scintillation counting using a Wallac MicroBeta TriLux.
Dose response curves were generated from 10 concentrations (top final concentration 10 μM, with 3-fold dilutions), using triplicate wells.
[…] values were determined by non-linear regression analysis, after fitting the data point results to the equation for sigmoidal dose response with variable slope (% activity against log concentration of compound), using Xlf it software.

[4] = tested on: TNFα production in human whole blood; assay: LPS-stimulation of human whole blood, TNF-α ELISA; assay type: cell-based; settings: for IC50: Homo sapiens, 6 h; for Ratio IC50 WB/enzyme: whole blood TNFα IC50 / P38 MAP kinase IC50
Experimental: Whole blood was taken by venous puncture using heparinised vacutainers (Becton Dickinson) and diluted in an equal volume of RPMI1640 tissue culture media. 100 μl was plated in V-bottomed 96 well tissue culture plates. Inhibitor was added in 100 μl of RPMI1640 media, and 2 h later the blood was stimulated with LPS (E coli strain 005:B5, Sigma) at a final concentration of 100 ng/ml and incubated at 37° C. in 5% CO2 for 6 h. TNF-α levels were measured from cell-free supernatants by sandwich ELISA (R&D Systems #QTA00B).

[5] = target: T2, p38 MAP kinase α (Homo sapiens, UniProt Q16539); assay: P38 MAP kinase α inhibitory activity assay; assay type: biochemical; settings: ATP 90 μM; read-out: Enzyme inhibition IC50 nM (P38 MAP kinase)
T2 construct: full length human enzyme expressed in E coli as an N-terminally GST-tagged protein; GST (N); purchased Upstate (Dundee UK), assay run by the vendor; host or cells: E. coli
T2 sequence (Q16539 whole entry): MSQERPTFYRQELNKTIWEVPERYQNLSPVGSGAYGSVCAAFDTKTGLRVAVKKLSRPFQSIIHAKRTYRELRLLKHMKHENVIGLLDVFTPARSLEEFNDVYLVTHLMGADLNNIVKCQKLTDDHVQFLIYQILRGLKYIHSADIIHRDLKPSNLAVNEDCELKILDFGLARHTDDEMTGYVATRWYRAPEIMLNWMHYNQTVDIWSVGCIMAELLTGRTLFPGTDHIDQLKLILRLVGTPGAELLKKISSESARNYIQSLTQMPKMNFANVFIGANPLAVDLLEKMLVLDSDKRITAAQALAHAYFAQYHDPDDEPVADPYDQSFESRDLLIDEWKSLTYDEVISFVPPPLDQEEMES
Experimental: The ability of compounds to inhibit p38 MAP kinase α (full length human enzyme expressed in E coli as an N-terminally GST-tagged protein) activity was measured in an assay performed by Upstate (Dundee UK). […] The reaction was initiated by the addition of the MgATP mix. After incubation for 40 minutes at room temperature, the reaction was stopped by the addition of 5 μl of a 3% phosphoric acid solution. 10 μl of the reaction was then spotted onto a P30 filtermat and washed three times for 5 minutes in 75 mM phosphoric acid and once in methanol, prior to drying and scintillation counting.
Dose response curves were generated from a ½ log dilution series of a stock inhibitor solution in DMSO. Nine dilutions steps were made from a top, final concentration of 10 μM, and a ‘no compound’ blank was included. Samples were run in duplicate. Data from scintillation counts were collected and subjected to free-fit analysis by Graphpad Prism software. From the curve generated, the concentration giving 50% inhibition was determined.

[6] = target: T3, PI 3-kinase γ (Homo sapiens, UniProt P48736); assay: PI 3-kinase γ inhibition assay (HTRF); assay type: biochemical; settings: 100 μM MgATP; read-out: Enzyme inhibition IC50 nM (PI3-Kinase)
T3 construct: recombinant N-terminally His6-tagged, full length human enzyme; His6 (N); purchased Upstate (Dundee, UK), assay run by the vendor; host or cells: baculovirus / Sf21 insect cells
T3 sequence (P48736 whole entry): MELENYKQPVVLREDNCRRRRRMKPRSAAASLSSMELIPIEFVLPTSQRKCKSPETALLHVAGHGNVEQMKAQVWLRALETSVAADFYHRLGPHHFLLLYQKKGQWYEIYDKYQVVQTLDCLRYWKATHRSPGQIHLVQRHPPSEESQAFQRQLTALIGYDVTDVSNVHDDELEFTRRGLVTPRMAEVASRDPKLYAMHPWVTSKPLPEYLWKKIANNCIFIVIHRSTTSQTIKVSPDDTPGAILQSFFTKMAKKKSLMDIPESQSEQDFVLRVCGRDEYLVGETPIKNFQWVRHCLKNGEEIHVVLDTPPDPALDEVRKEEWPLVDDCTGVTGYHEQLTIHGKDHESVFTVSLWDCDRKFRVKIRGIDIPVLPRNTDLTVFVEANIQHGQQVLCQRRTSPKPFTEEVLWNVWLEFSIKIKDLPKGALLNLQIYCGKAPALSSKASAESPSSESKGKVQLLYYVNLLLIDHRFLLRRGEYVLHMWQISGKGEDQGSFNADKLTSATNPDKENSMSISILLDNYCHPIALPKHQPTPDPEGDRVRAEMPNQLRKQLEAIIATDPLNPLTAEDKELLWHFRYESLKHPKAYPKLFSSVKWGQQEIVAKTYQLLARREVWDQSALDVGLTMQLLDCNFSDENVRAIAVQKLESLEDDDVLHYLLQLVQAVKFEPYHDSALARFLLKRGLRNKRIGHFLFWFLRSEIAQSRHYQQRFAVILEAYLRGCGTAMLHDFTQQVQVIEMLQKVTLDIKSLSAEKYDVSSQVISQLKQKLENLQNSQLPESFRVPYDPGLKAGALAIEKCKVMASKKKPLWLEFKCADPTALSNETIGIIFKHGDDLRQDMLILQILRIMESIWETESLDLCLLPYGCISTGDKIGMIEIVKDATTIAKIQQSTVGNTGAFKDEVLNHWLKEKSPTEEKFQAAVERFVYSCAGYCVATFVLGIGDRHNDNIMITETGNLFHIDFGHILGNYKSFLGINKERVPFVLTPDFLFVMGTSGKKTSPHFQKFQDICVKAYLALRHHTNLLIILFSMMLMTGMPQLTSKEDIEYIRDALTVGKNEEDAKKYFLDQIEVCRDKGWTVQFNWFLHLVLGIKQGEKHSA
Excerpt: The measurement of PI 3-kinase γ activity is dependent upon the specific and high affinity binding of the GRP1 pleckstrin homology (PH) domain to PIP3, the product of PI 3-kinase activity. A complex is formed between europium-labelled anti-GST monoclonal antibody, a GST-tagged GRP1 PH domain, biotinylated PIP3 and streptavidin-allophycocyanin (APC). This complex generates a stable time-resolved fluorescence resonance energy transfer (FRET) signal, which is diminished by competition of PIP3, generated in the PI 3-kinase assay, with the biotinylated PIPS.
The reaction was initiated by the addition of the MgATP mix. After incubation for 30 minutes at room temperature, the reaction was stopped by the addition of 5 μl of stop solution containing EDTA and biotinylated phosphatidylinositol-3,4,5-trisphosphate. Finally, 5 μl of detection buffer was added, which contained europium-labelled anti-GST monoclonal antibody, GST-tagged GRP1 PH domain and streptavidin-APC. The plate was then read in time-resolved fluorescence mode and the homogenous time-resolved fluorescence (HTRF) signal was determined according to the formula HTRF=10000×(Em665 nm/Em620 nm).
Duplicate data points were generated from a ½ log dilution series of a stock solution of compound in DMSO. Nine dilutions steps were made from a top final concentration of 10 μM, and a ‘no compound’ blank was included. HTRF ratio data were transformed into % activity of controls and analysed with a four parameter sigmoidal dose-response (variable slope) application. The concentration giving 50% inhibition (1050) was determined.

[7] = U-937, read-out: Cell proliferation IC50 nM (U937 cells)
[8] = U937 cell proliferation IC50 / DHFR enzyme IC50
[9] = U-937, U937 monocytic cell line, read-out: Cell proliferation IC50 nM (U937 cells)
[10] = HCT-116, HCT116 non-monocytic cell line, read-out: Cell proliferation IC50 nM (HCT116)
[11] = U937 cell proliferation IC50 / Aurora kinase A IC50
[12] = LPS 100 ng/ml, read-out: Inhibition of TNFα production in human whole blood IC50

Compound: O=C(CCCCCCC(=O)Nc1ccccc1)NO [Compound 7, Suberoylanilide hydroxamic acid, reference compound]
IC50 [1, 7]: 400 nM

Compound: COc1cc2c(Oc3ccc(NC(=O)c4ccccc4)cc3)ccnc2cc1OCC[C@H](N)C(=O)O [Compound 13]
IC50 [1, 9]: > 5000 nM
IC50 [3]: 500 nM

Compound: Nc1c(C(=O)c2ccc(F)cc2F)ccc(=O)n1-c1c(F)cc(OCC[C@H](N)C(=O)OC2CCCC2)cc1F [Compound 16, cyclopentyl (S)-2-Amino-4-(4-[6-amino-5-(2,4-difluorobenzoyl)-2-oxo-2H-pyridin-1-yl]-3,5-difluorophenoxy)butanoate trifluoroacetate]
IC50 ([4]; read-out: Inhibition of TNFα production in human whole blood IC50 nM): 20 nM
Ratio IC50 WB/enzyme [4]: 0.8
IC50 [5]: 25 nM

Compound: Nc1c(C(=O)c2ccc(F)cc2F)ccc(=O)n1-c1c(F)cc(OCC[C@H](N)C(=O)O)cc1F [Compound 17, (S)-2-Amino-4-(4-[6-amino-5-(2,4-difluorobenzoyl)-2-oxo-2H-pyridin-1-yl]-3,5-difluorophenoxy)butanoic acid]
IC50 [5]: 30 nM

Compound: Cc1nc(NC(=O)CC[C@H](N)C(=O)O)sc1-c1ccc(Cl)c(S(C)(=O)=O)c1 [Compound 22, (S)-2-Amino-4-[5-(4-chloro-3-methanesulfonyl-phenyl)-4-methyl-thiazol-2-ylcarbamoyl]-butyric acid]
IC50 [6]: 3600 nM

Compound: COc1cc2c(Oc3ccc(NC(=O)c4ccccc4)cc3)ccnc2cc1OCC[C@H](NC1CCCCC1)C(=O)OC1CCCC1 [Compound 25, (S)-4-[4-(4-Benzoylamino-phenoxy)-6-methoxy-quinolin-7-yloxy]-2-cyclohexylamino-butyric acid cyclopentyl ester]
IC50 [1, 9]: 1900 nM
IC50 [2, 10]: 6100 nM

More lines, main results first:

IC50 [1, 7]: 2200 nM
IC50 ([2]; HCT-116, read-out: Cell proliferation IC50 nM (HCT116)): 1700 nM
Compound: COc1cc(NCc2cnc3nc(N)nc(N)c3c2C)cc(OC)c1OC [Compound 2 G = N, 5-Methyl-6-((3,4,5-trimethoxyphenylamino)methyl)pyrido[2,3-d]pyrimidine-2,4-diamine, reference compound]
Ratio IC50 cell/enzyme [1, 8]: 220
selectivity between a monocytic and non-monocytic cell line (cell proliferation) ([1]; U937 versus HCT116): no selectivity
Ratio IC50 cell/enzyme [2]: 170

IC50 [1, 9]: 5100 nM
IC50 [2, 10]: 7300 nM
Compound: Cc1c(CNc2ccc(OCC[C@H](N)C(=O)OC3CCCC3)cc2)cnc2nc(N)nc(N)c12 [Compound 3, (S)-2-Amino-4-{4-[(2,4-diamino-5-methyl-pyrido[2,3-d]pyrimidin-6-ylmethyl)-amino]-phenoxy}-butyric acid cyclopentyl ester]
Ratio IC50 cell/enzyme [1, 8]: 1.9
Ratio IC50 cell/enzyme [2]: 1.4

IC50 [1, 9]: 23 nM
IC50 [2, 10]: 110 nM
Compound: Cc1c(CNc2ccc(C(=O)N[C@@H](CC(C)C)C(=O)OC3CCCC3)cc2)cnc2nc(N)nc(N)c12 [Compound 6, (S)-2-{4-[(2,4-Diamino-5-methyl-pyrido[2,3-d]pyrimidin-6-ylmethyl)-amino]-benzoylamino}-4-methyl-pentanoic acid cyclopentyl ester]
Ratio IC50 cell/enzyme [1, 8]: 0.013
fold more potent than the unmodified analogue (2 G=N) ([1]; U937 cells): 100 fold
fold more potent than the unmodified analogue (2 G=N) ([2]; HCT116): 15 fold
Ratio IC50 cell/enzyme [2]: 0.04

IC50 [1, 9]: 430 nM
IC50 [3]: 350 nM
Compound: COc1cc2nccc(Oc3ccc(NC(=O)c4ccccc4)cc3)c2cc1OC [Compound 11, N-{4-(7-methoxy-6-methoxy-quinoline-4-yloxy)-phenyl}-benzamide, reference compound]
Ratio IC50 cell/enzyme [1, 11]: 1.3

IC50 [1, 9]: 3.5 nM
IC50 [3]: 2300 nM
Compound: COc1cc2c(Oc3ccc(NC(=O)c4ccccc4)cc3)ccnc2cc1OCC[C@H](N)C(=O)OC1CCCC1 [Compound 12, (S)-2-amino-4-[4-(4-benzoylamino-phenoxy)-6-methoxy-quinolin-7-yloxy]-butyric acid cyclopentyl ester]
Ratio IC50 cell/enzyme [1, 11]: 0.0015

IC50 [1, 9]: 75 nM
IC50 [3]: 3000 nM
Compound: COc1cc2c(Oc3ccc(NC(=O)c4ccccc4)cc3)ccnc2cc1OCC[C@H](N)C(=O)OC(C)(C)C [Compound 14, (S)-2-Amino-4-[4-(4-benzoylamino-phenoxy)-6-methoxy-quinolin-7-yloxy]-butyric acid tert-butyl ester]
fold less active in the cell assay than cyclopentyl ester (Compound 12) ([1]; U937 cell proliferation): ~20 fold
Ratio IC50 cell/enzyme [1, 11]: 0.025

IC50 [4, 12]: 300 nM
IC50 [5]: 50 nM
Compound: Nc1c(C(=O)c2ccc(F)cc2F)ccc(=O)n1-c1c(F)cccc1F [Compound 15, 6-Amino-5-(2,4-difluoro-benzoyl)-1-(2,6-difluoro-phenyl)-1H-pyridin-2-one, reference compound]
Ratio IC50 WB/enzyme [4]: 6

IC50 [4, 12]: 750 nM
IC50 [5]: 40 nM
Compound: CC(C)(C)OC(=O)[C@@H](N)CCOc1cc(F)c(-n2c(N)c(C(=O)c3ccc(F)cc3F)ccc2=O)c(F)c1 [Compound 18, (S)-2-Amino-4-{4-[6-amino-5-(2,4-difluoro-benzoyl)-2-oxo-2H-pyridin-1-yl]-3,5-difluoro-phenoxy}-butyric acid tert-butyl ester]
Ratio IC50 WB/enzyme [4]: 18
